Reference: ChEMBL document CHEMBL1201862, “PubChem BioAssay data set” (2004)
Where “and” joins values, the source holds several entries; their conditions need not be identical. Equal values may be shown once.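 Cultured in 96-well plates, cells were exposed to test compound for 48 hours across five concentrations. GI50 = concentration required for 50% inhibition of growth.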 Calls of active or inactive are those of the source. No stated cut-off is given here; in the data, active = GI50 up to about 1.1 µM and inactive = higher.

Legend:
Test in all cases: NCI-60 cell line screen, 48 h
[1] = system: 786-0
[2] = system: A498
[3] = system: A549
[4] = system: ACHN
[5] = system: BT-549
[6] = system: CAKI-1
[7] = system: CCRF-CEM
[8] = system: COLO 205
[9] = system: DLD-1
[10] = system: DMS-114
[11] = system: DMS-273
[12] = system: DU-145
[13] = system: EKVX
[14] = system: HCC 2998
[15] = system: HCT-116
[16] = system: HCT-15
[17] = system: HL-60
[18] = system: HOP-18
[19] = system: HOP-62
[20] = system: HOP-92
[21] = system: HT-29
[22] = system: Hs-578T
[23] = system: IGROV-1
[24] = system: K562
[25] = system: KM-20L2
[26] = system: KM12
[27] = system: LOX IMVI
[28] = system: LXFL 529
[29] = system: M14
[30] = system: M19-MEL
[31] = system: MCF7
[32] = system: MDA-MB-231
[33] = system: MDA-MB-435
[34] = system: MDA-N
[35] = system: MOLT-4
[36] = system: Malme-3M
[37] = system: NCI-H226
[38] = system: NCI-H23
[39] = system: NCI-H460
[40] = system: NCI-H522
[41] = system: NCI/ADR-RES
[42] = system: OVCAR-3
[43] = system: OVCAR-4
[44] = system: OVCAR-5
[45] = system: OVCAR-8
[46] = system: PC-3
[47] = system: RPMI-8226
[48] = system: RXF 393
[49] = system: SF-268
[50] = system: SF-295
[51] = system: SF-539
[52] = system: SK-MEL-28
[53] = system: SK-MEL-2
[54] = system: SK-MEL-5
[55] = system: SK-OV-3
[56] = system: SN12C
[57] = system: SNB-19
[58] = system: SNB-75
[59] = system: SNB-78
[60] = system: SR
[61] = system: SW-620
[62] = system: T47D
[63] = system: TK-10
[64] = system: U-251
[65] = system: UACC-257
[66] = system: UACC-62
[67] = system: UO-31
[68] = system: XF498

CN(C)CC1(Cc2ccccc2)CCC(Cc2ccccc2)C1=O (stereo not drawn)
GI50 [1]: 2.07 µM (inactive)
GI50 [2]: 15.5 µM (inactive)
GI50 [3]: 17.3 µM (inactive)
GI50 [4]: 16.1 µM (inactive)
GI50 [5]: 8.95 µM (inactive)
GI50 [6]: 13.3 µM (inactive)
GI50 [7]: 2.79 µM (inactive)
GI50 [8]: 6.85 µM (inactive)
GI50 [9]: 2.86 µM (inactive)
GI50 [10]: 15.8 µM (inactive)
GI50 [11]: 10.5 µM (inactive)
GI50 [12]: 14.8 µM (inactive)
GI50 [13]: 17.1 µM (inactive)
GI50 [14]: 7.05 µM (inactive)
GI50 [15]: 11.1 µM (inactive)
GI50 [16]: 5.21 µM
GI50 [17]: 3.29 µM (inactive)
GI50 [18]: 8.47 µM (inactive)
GI50 [19]: 18 µM (inactive)
GI50 [20]: 17.4 µM (inactive)
GI50 [21]: 13 µM (inactive)
GI50 [22]: 15.6 µM (inactive)
GI50 [23]: 9.04 µM (inactive)
GI50 [24]: 2.79 µM (inactive)
GI50 [25]: 17.1 µM (inactive)
GI50 [26]: 8.36 µM (inactive)
GI50 [27]: 6.9 µM (inactive)
GI50 [28]: 2.71 µM (inactive)
GI50 [29]: 10.1 µM (inactive)
GI50 [30]: 16.5 µM (inactive)
GI50 [31]: 5.15 µM (inactive)
GI50 [32]: 11.2 µM (inactive)
GI50 [33]: 10.2 µM (inactive)
GI50 [34]: 11 µM (inactive)
GI50 [35]: 2.88 µM (inactive)
GI50 [36]: 12.5 µM (inactive)
GI50 [37]: 20.1 µM (inactive)
GI50 [38]: 18.1 µM (inactive)
GI50 [39]: 12.2 µM (inactive)
GI50 [40]: 2.84 µM (inactive)
GI50 [41]: 9.68 µM (inactive)
GI50 [42]: 6.95 µM (inactive)
GI50 [43]: 16.3 µM (inactive)
GI50 [44]: 18 µM (inactive)
GI50 [45]: 5.73 µM (inactive)
GI50 [46]: 10.1 µM (inactive)
GI50 [47]: 1.89 µM (inactive)
GI50 [48]: 13.9 µM (inactive)
GI50 [49]: 14.8 µM (inactive)
GI50 [50]: 16.6 µM (inactive)
GI50 [51]: 18.1 µM (inactive)
GI50 [52]: 12.3 µM (inactive)
GI50 [53]: 12.2 µM (inactive)
GI50 [54]: 13.7 µM (inactive)
GI50 [55]: 21.8 µM (inactive)
GI50 [56]: 9.77 µM (inactive)
GI50 [57]: 16 µM (inactive)
GI50 [58]: 14.4 µM (inactive)
GI50 [59]: 15.8 µM (inactive)
GI50 [60]: 4.47 µM (inactive)
GI50 [61]: 3.67 µM (inactive)
GI50 [62]: 8.61 µM (inactive)
GI50 [63]: 13.4 µM (inactive)
GI50 [64]: 17.5 µM (inactive)
GI50 [65]: 14.9 µM (inactive)
GI50 [66]: 16.5 µM (inactive)
GI50 [67]: 16.9 µM (inactive)
GI50 [68]: 21.9 µM (inactive)

CCCCN1C=CN2c3nc4cc(C)c(C)cc4n3C(C(=O)OC)=C(C(=O)OC)C12 (stereo not drawn)
GI50 [3]: > 100 µM (inactive)
GI50 [4]: > 100 µM (inactive)
GI50 [6]: > 100 µM (inactive)
GI50 [7]: > 100 µM (inactive)
GI50 [9]: > 100 µM (inactive)
GI50 [10]: > 100 µM (inactive)
GI50 [11]: > 100 µM (inactive)
GI50 [13]: > 100 µM (inactive)
GI50 [14]: > 100 µM (inactive)
GI50 [15]: > 100 µM (inactive)
GI50 [16]: > 100 µM
GI50 [17]: > 100 µM (inactive)
GI50 [18]: > 100 µM (inactive)
GI50 [19]: > 100 µM (inactive)
GI50 [20]: > 100 µM (inactive)
GI50 [21]: > 100 µM (inactive)
GI50 [23]: > 100 µM (inactive)
GI50 [24]: > 100 µM (inactive)
GI50 [25]: > 100 µM (inactive)
GI50 [27]: > 100 µM (inactive)
GI50 [28]: > 100 µM (inactive)
GI50 [29]: > 100 µM (inactive)
GI50 [30]: > 100 µM (inactive)
GI50 [35]: > 100 µM (inactive)
GI50 [36]: > 100 µM (inactive)
GI50 [38]: > 100 µM (inactive)
GI50 [39]: > 100 µM (inactive)
GI50 [40]: > 100 µM (inactive)
GI50 [42]: > 100 µM (inactive)
GI50 [43]: > 100 µM (inactive)
GI50 [44]: > 100 µM (inactive)
GI50 [45]: > 100 µM (inactive)
GI50 [47]: > 100 µM (inactive)
GI50 [48]: > 100 µM (inactive)
GI50 [49]: > 100 µM (inactive)
GI50 [50]: > 100 µM (inactive)
GI50 [51]: > 100 µM (inactive)
GI50 [53]: > 100 µM (inactive)
GI50 [54]: > 100 µM (inactive)
GI50 [55]: > 100 µM (inactive)
GI50 [56]: > 100 µM (inactive)
GI50 [57]: > 100 µM (inactive)
GI50 [58]: > 100 µM (inactive)
GI50 [59]: > 100 µM (inactive)
GI50 [60]: > 100 µM (inactive)
GI50 [61]: > 100 µM (inactive)
GI50 [63]: > 100 µM (inactive)
GI50 [64]: > 100 µM (inactive)
GI50 [65]: > 100 µM (inactive)
GI50 [66]: > 100 µM (inactive)
GI50 [67]: > 100 µM (inactive)
GI50 [68]: > 100 µM (inactive)

CCN(CC)CCN1C(=O)c2c(c3c4cccc(Cl)c4n(C4OC(CO)C(OC)C(O)C4O)c3c3[nH]c4c(Cl)cccc4c23)C1=O (stereo not drawn)
GI50 [5]: 0.175 µM (active)
GI50 [7]: < 0.0166 µM (active)
GI50 [9]: 0.0918 µM (active)
GI50 [10]: 0.0413 µM (active)
GI50 [11]: < 0.0178 µM (active)
GI50 [12]: 0.0121 µM (active)
GI50 [15]: < 0.0164 µM (active)
GI50 [16]: 0.103 µM and 0.132 µM
GI50 [18]: 0.00101 µM (active)
GI50 [20]: < 34.4 nM (active) and < 24 nM (active)
GI50 [21]: < 0.0189 µM (active)
GI50 [22]: 0.0379 µM (active)
GI50 [25]: 0.773 µM (active)
GI50 [28]: < 0.0239 µM (active)
GI50 [30]: 0.0303 µM (active)
GI50 [31]: < 0.01 µM (active)
GI50 [32]: 0.182 µM (active)
GI50 [33]: 0.0147 µM (active)
GI50 [34]: 0.0111 µM (active)
GI50 [35]: < 10 nM (active) and 17.6 nM (active)
GI50 [41]: 0.169 µM (active)
GI50 [46]: < 0.0386 µM (active)
GI50 [50]: < 0.0165 µM (active)
GI50 [53]: 42.8 nM (active) and 68.1 nM (active)
GI50 [59]: 0.00101 µM (active)
GI50 [60]: < 0.0137 µM (active)
GI50 [62]: 0.0212 µM (active)
GI50 [68]: 0.0463 µM (active)
